Reference: US11066369B2, “N-(pyridin-2-yl)pyridine-sulfonamide derivatives and their use in the treatment of disease” (Novartis AG, priority 2016, dated 2021)

Molecular target: T1, horseradish peroxidase (HRP) tagged delF508-CFTR (Homo sapiens, UniProt P13569, DEL508-508)
T1 construct: expressed in transfected cells
Test: Measurement of delF508-CFTR-HRP surface expression in CFBE41o- cells;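 for DelF508-CFTR-HRP Amax %: percent efficacy relative to reference corrector lumacaftor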
Type: cell-based
Details: CFBE41o- cells; for EC50: mean of at least two replicates, read-out: DelF508-CFTR-HRP EC50; for Emax: surface expression Amax, read-out: DelF508-CFTR-HRP Amax %
In short: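 Surface-trafficked delF508-CFTR detected via extracellular HRP tag, read as luminescence from a membrane-impermeant substrate in CFBE41o- cells. Cells pre-induced 48h with 500 ng/mL doxycycline, then exposed 24h at 37° C to a 10-point, 3-fold dilution series from 10 μM (DMSO ≤0.5%). Triplicate dose-responses fitted logistically for EC50 after per-plate normalization; fold change versus reference compound.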

T1 sequence (P13569 with tags, fused parts or gaps DEL508-508): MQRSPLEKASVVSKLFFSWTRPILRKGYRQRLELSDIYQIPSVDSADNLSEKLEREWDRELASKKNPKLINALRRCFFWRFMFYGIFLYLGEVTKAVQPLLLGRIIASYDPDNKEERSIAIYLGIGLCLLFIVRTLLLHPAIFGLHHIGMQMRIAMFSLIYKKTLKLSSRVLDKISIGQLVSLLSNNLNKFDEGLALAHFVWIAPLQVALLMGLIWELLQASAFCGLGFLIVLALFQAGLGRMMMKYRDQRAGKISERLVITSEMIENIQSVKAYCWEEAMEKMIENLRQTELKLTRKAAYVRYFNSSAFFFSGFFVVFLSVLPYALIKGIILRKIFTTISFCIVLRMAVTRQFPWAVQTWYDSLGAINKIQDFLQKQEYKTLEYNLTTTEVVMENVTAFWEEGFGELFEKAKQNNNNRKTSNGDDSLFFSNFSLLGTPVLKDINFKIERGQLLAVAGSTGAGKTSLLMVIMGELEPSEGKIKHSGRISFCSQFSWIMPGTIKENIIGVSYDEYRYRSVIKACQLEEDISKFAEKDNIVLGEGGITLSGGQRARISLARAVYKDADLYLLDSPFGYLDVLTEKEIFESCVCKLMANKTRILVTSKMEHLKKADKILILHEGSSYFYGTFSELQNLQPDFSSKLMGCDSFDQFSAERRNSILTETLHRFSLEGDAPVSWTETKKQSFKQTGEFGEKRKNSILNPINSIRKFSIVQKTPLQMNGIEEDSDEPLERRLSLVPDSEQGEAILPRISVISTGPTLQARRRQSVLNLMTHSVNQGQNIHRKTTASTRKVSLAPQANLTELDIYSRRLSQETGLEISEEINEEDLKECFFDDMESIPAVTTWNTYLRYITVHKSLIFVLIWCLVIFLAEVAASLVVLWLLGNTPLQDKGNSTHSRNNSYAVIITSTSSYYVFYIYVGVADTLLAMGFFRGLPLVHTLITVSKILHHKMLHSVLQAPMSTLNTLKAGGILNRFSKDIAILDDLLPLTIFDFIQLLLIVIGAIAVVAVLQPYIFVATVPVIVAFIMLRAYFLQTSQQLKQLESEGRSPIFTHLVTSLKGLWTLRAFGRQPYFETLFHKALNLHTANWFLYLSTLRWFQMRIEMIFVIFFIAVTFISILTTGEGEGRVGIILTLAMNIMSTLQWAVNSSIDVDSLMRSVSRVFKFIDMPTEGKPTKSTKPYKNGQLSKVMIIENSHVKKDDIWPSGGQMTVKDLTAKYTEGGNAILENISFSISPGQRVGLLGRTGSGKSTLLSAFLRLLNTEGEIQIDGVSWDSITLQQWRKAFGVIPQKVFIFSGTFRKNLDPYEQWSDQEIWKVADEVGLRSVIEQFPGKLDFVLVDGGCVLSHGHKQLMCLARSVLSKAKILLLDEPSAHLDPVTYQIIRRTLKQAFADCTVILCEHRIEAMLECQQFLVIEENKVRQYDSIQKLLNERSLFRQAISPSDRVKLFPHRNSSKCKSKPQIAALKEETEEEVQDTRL

Structure (SMILES) | EC50 | Emax
COc1ccc(Cl)cc1-c1nc(NS(=O)(=O)c2cccc(N3CCC(C)(C(=O)O)CC3)n2)ccc1C(F)(F)F [Example 426, 1-(6-(N-(6-(5-chloro-2-methoxyphenyl)-5-(trifluoromethyl)pyridin-2-yl)sulfamoyl)pyridin-2-yl)-4-methylpiperidine-4-carboxylic Acid] | 2.32 µM | 287%
CC(C)Oc1ccc(Cl)cc1-c1nc(NS(=O)(=O)c2cccc(N3CCC(C)(C(=O)O)CC3)n2)ccc1C(F)(F)F [Example 427, 1-(6-(N-(6-(5-chloro-2-isopropoxyphenyl)-5-(trifluoromethyl)pyridin-2-yl)sulfamoyl)pyridin-2-yl)-4-methylpiperidine-4-carboxylic Acid] | 0.638 µM | 282%
Cc1ccccc1-c1nc(NS(=O)(=O)c2cccc(N3CCC[C@](C)(C(=O)O)C3)n2)ccc1C(F)(F)F [Example 428, (3S)-3-methyl-1-(6-{[6-(2-methylphenyl)-5-(trifluoromethyl)pyridin-2-yl]sulfamoyl}pyridin-2-yl)piperidine-3-carboxylic Acid] | 1.68 µM | 713%
C[C@]1(C(=O)O)CCCN(c2cccc(S(=O)(=O)Nc3ccc(C(F)(F)F)c(-c4ccccc4C4CC4)n3)n2)C1 [Example 429, (S)-1-(6-(N-(6-(2-cyclopropylphenyl)-5-(trifluoromethyl)pyridin-2-yl)sulfamoyl)pyridin-2-yl)-3-methylpiperidine-3-carboxylic Acid] | 0.838 µM | 541%
CC1(C(=O)O)CCN(c2cccc(S(=O)(=O)Nc3ccc(Cl)c(-c4ccccc4C4CC4)n3)n2)CC1 [Example 430, 1-(6-(N-(5-chloro-6-(2-cyclopropylphenyl)pyridin-2-yl)sulfamoyl)pyridin-2-yl)-4-methylpiperidine-4-carboxylic Acid] | 1.71 µM | 370%
CC1(C(=O)O)CCCN(c2cccc(S(=O)(=O)Nc3ccc(Cl)c(-c4ccccc4C4CC4)n3)n2)C1 (stereo not drawn) [Example 431, 1-(6-(N-(5-chloro-6-(2-cyclopropylphenyl)pyridin-2-yl)sulfamoyl)pyridin-2-yl)-3-methylpiperidine-3-carboxylic Acid] | 1.73 µM | 763%
COc1ccc(Cl)cc1-c1nc(NS(=O)(=O)c2cccc(N3CCCC(C)(C(=O)O)C3)n2)ccc1C(F)(F)F (stereo not drawn) [Example 432, 1-(6-(N-(6-(5-chloro-2-methoxyphenyl)-5-(trifluoromethyl)pyridin-2-yl)sulfamoyl)pyridin-2-yl)-3-methylpiperidine-3-carboxylic Acid] | 1.92 µM | 596%
CC(C)Oc1ccc(Cl)cc1-c1nc(NS(=O)(=O)c2cccc(N3CCCC(C)(C(=O)O)C3)n2)ccc1C(F)(F)F (stereo not drawn) [Example 433, 1-(6-(N-(6-(5-chloro-2-isopropoxyphenyl)-5-(trifluoromethyl)pyridin-2-yl)sulfamoyl)pyridin-2-yl)-3-methylpiperidine-3-carboxylic Acid] | 0.436 µM | 571%
Cc1ccc(F)cc1-c1nc(NS(=O)(=O)c2cccc(N3CCC[C@](C)(C(=O)O)C3)n2)ccc1C(F)(F)F [Example 435, (3S)-1-(6-{[6-(5-fluoro-2-methylphenyl)-5-(trifluoromethyl)pyridin-2-yl]sulfamoyl}pyridin-2-yl)-3-methylpiperidine-3-carboxylic Acid] | 2.3 µM | 714%
Cc1c(F)cccc1-c1nc(NS(=O)(=O)c2cccc(N3CCC[C@](C)(C(=O)O)C3)n2)ccc1C(F)(F)F [Example 436, (3S)-1-(6-{[6-(3-fluoro-2-methylphenyl)-5-(trifluoromethyl)pyridin-2-yl]sulfamoyl}pyridin-2-yl)-3-methylpiperidine-3-carboxylic Acid] | 1.77 µM | 438%
C[C@@]1(C(=O)O)CCCN(c2cccc(S(=O)(=O)Nc3ccc(Cl)c(-c4ccccc4C4CC4)n3)n2)C1 [Example 437, (R)-1-(6-(N-(5-chloro-6-(2-cyclopropylphenyl)pyridin-2-yl)sulfamoyl)pyridin-2-yl)-3-methylpiperidine-3-carboxylic Acid] | 1.56 µM | 869%
Cc1ccc(F)cc1-c1nc(NS(=O)(=O)c2cccc(N3CCCC4(CC4C(=O)O)C3)n2)ccc1C(F)(F)F (stereo not drawn) [Example 439, 5-(6-(N-(6-(5-fluoro-2-methylphenyl)-5-(trifluoromethyl)pyridin-2-yl)sulfamoyl)pyridin-2-yl)-5-azaspiro[2.5]octane-1-carboxylic Acid] | 2.22 µM | 264%
Cc1c(F)cccc1-c1nc(NS(=O)(=O)c2cccc(N3CCCC4(CC4C(=O)O)C3)n2)ccc1C(F)(F)F (stereo not drawn) [Example 440, 5-(6-(N-(6-(3-fluoro-2-methylphenyl)-5-(trifluoromethyl)pyridin-2-yl)sulfamoyl)pyridin-2-yl)-5-azaspiro[2.5]octane-1-carboxylic Acid] | 2.54 µM | 274%
Cc1ccccc1-c1nc(NS(=O)(=O)c2cccc(N3CCCC4(CC4C(=O)O)C3)n2)ccc1C(F)(F)F (stereo not drawn) [Example 441, 5-(6-(N-(6-(o-tolyl)-5-(trifluoromethyl)pyridin-2-yl)sulfamoyl)pyridin-2-yl)-5-azaspiro[2.5]octane-1-carboxylic Acid] | 2.31 µM | 299%
CC1(C(=O)O)CCCN(c2cccc(S(=O)(=O)Nc3ccc(C(F)(F)F)c(-c4ccccc4CO)n3)n2)C1 (stereo not drawn) [Example 444, 1-(6-(N-(6-(2-(hydroxymethyl)phenyl)-5-(trifluoromethyl)pyridin-2-yl)sulfamoyl)pyridin-2-yl)-3-methylpiperidine-3-carboxylic Acid] | 4.06 µM | 47.5%
CC1(C(=O)O)CCCN(c2cccc(S(=O)(=O)Nc3ccc(C(F)(F)F)c(-c4ccccc4CCO)n3)n2)C1 (stereo not drawn) [Example 445, 1-(6-(N-(6-(2-(2-hydroxyethyl)phenyl)-5-(trifluoromethyl)pyridin-2-yl)sulfamoyl)pyridin-2-yl)-3-methylpiperidine-3-carboxylic Acid] | 2.66 µM | 94.1%
Cc1ccccc1-c1nc(NS(=O)(=O)c2cccc(N3CCC4(CC3)CC(C(=O)O)C4)n2)ccc1C(F)(F)F [Example 446, 7-(6-(N-(6-(o-tolyl)-5-(trifluoromethyl)pyridin-2-yl)sulfamoyl)pyridin-2-yl)-7-azaspiro[3.5]nonane-2-carboxylic Acid] | 2.11 µM | 278%
Cc1ccccc1-c1nc(NS(=O)(=O)c2cccc(N3CCC[C@@](C)(C(=O)O)C3)n2)ccc1Cl [Example 447, (R)-1-(6-(N-(5-chloro-6-(o-tolyl)pyridin-2-yl)sulfamoyl)pyridin-2-yl)-3-methylpiperidine-3-carboxylic Acid] | 2.41 µM | 
Cc1cccc(C)c1-c1nc(NS(=O)(=O)c2cccc(N3CCC[C@@](C)(C(=O)O)C3)n2)ccc1Cl [Example 448, (R)-1-(6-(N-(5-chloro-6-(2,6-dimethylphenyl)pyridin-2-yl)sulfamoyl)pyridin-2-yl)-3-methylpiperidine-3-carboxylic Acid] | 1.49 µM | 
COc1ccc(Cl)c(-c2nc(NS(=O)(=O)c3cccc(N4CCC[C@@H](C(=O)O)C4)n3)ccc2C(F)(F)F)c1 [Example 449, (R)-1-(6-(N-(6-(2-chloro-5-methoxyphenyl)-5-(trifluoromethyl)pyridin-2-yl)sulfamoyl)pyridin-2-yl)piperidine-3-carboxylic Acid] | 2.37 µM | 
Cc1ccc(Cl)cc1-c1nc(NS(=O)(=O)c2cccc(N3CCC[C@@](C)(C(=O)O)C3)n2)ccc1C(F)(F)F [Example 450, (R)-1-(6-(N-(6-(5-chloro-2-methylphenyl)-5-(trifluoromethyl)pyridin-2-yl)sulfamoyl)pyridin-2-yl)-3-methylpiperidine-3-carboxylic Acid] | 1.1 µM | 
Cc1ccc(Cl)cc1-c1nc(NS(=O)(=O)c2cccc(N3CCC(C)(C(=O)O)CC3)n2)ccc1C(F)(F)F [Example 451, 1-(6-(N-(6-(5-chloro-2-methylphenyl)-5-(trifluoromethyl)pyridin-2-yl)sulfamoyl)pyridin-2-yl)-4-methylpiperidine-4-carboxylic Acid] | 2.68 µM | 847%
CCC1(C(=O)O)CCCN(c2cccc(S(=O)(=O)Nc3ccc(Cl)c(-c4ccccc4C)n3)n2)C1 (stereo not drawn) [Example 452, 1-(6-(N-(5-chloro-6-(o-tolyl)pyridin-2-yl)sulfamoyl)pyridin-2-yl)-3-ethylpiperidine-3-carboxylic Acid] | 2.36 µM | 990%
CCC1(C(=O)O)CCCN(c2cccc(S(=O)(=O)Nc3ccc(Cl)c(-c4c(C)cccc4C)n3)n2)C1 (stereo not drawn) [Example 453, 1-(6-(N-(5-chloro-6-(2,6-dimethylphenyl)pyridin-2-yl)sulfamoyl)pyridin-2-yl)-3-ethylpiperidine-3-carboxylic Acid] | 1.59 µM | 
CCC1(C(=O)O)CCCN(c2cccc(S(=O)(=O)Nc3ccc(C(F)(F)F)c(-c4ccccc4C)n3)n2)C1 (stereo not drawn) [Example 454, 3-ethyl-1-(6-(N-(6-(o-tolyl)-5-(trifluoromethyl)pyridin-2-yl)sulfamoyl)pyridin-2-yl)piperidine-3-carboxylic Acid] | 1.7 µM | 
COc1ccc(Cl)cc1-c1nc(NS(=O)(=O)c2cccc(N3CCC[C@@](C)(C(=O)O)C3)n2)ccc1C(F)(F)F [Example 455, (R)-1-(6-(N-(6-(5-chloro-2-methoxyphenyl)-5-(trifluoromethyl)pyridin-2-yl)sulfamoyl)pyridin-2-yl)-3-methylpiperidine-3-carboxylic Acid] | 1.77 µM | 899%
CCCC1(C(=O)O)CCCN(c2cccc(S(=O)(=O)Nc3ccc(Cl)c(-c4ccccc4C)n3)n2)C1 (stereo not drawn) [Example 456, 1-(6-(N-(5-chloro-6-(o-tolyl)pyridin-2-yl)sulfamoyl)pyridin-2-yl)-3-propylpiperidine-3-carboxylic Acid] | 1.36 µM | 465%
